We go through one compound from patent US20210254138A1, “SIALIC ACID TRANSPORTER PROTEINS AS BIOMARKERS AND DRUG TARGETS” (Quadram Institute Bioscience, priority 2018, published 2021).

Each structure is given as a SMILES string.

By Km is commonly meant the substrate concentration at which the rate is half of its maximum. What is called kcat is the maximal rate divided by the concentration of active sites.

Test [1] has as its system R. gnavus ATCC 29149 nan deletion mutants. The test can be described thus: Growth on sole carbon source, nan deletion mutants. It is filed as cell-based. To be noted: 11.1 mM in YCFA, anaerobic. The source says:
R. gnavus mutants were generated using the ClosTron methodology (Heap et al., 2010), which inserts an erythromycin resistance cassette into the gene of interest. Target sites were identified using the Pertuka method (Perutka et al., 2004). The re-targeted introns were synthesised and ligated into the pMTL007C-E2 vector by ATUM (MenloPark, USA). The plasmids were then transformed into E. coli CA434 using the heat-shock protocol, and the recombinant clones selected for chloramphenicol resistance. Recombinant E. coli cells were grown overnight in 10 ml LB, 1 ml of the overnight culture was pelleted and washed with PBS. The E. coli cell pellet was resuspended in 200 μl of an R. gnavus overnight culture and the cell suspension spotted onto a non-selective BHI-YH plate. […]
The ability of the mutants to utilise sialic acids and sialoconjugates was assessed by supplementing YCFA with 11.1 mM of 2,7-anhydro-Neu5Ac, 3'SL, glucose or Neu5Ac in triplicate 200 μl cultures in 96-well microtiter plates. The OD595 nm was measured hourly for 10 h in an infinite F50 plate reader (Tecan, UK) housed within an anaerobic cabinet connected to Magellan V7.0 software.

Test [2] addresses T1, RUMGNA_02695 (RgNanOx, oxidoreductase) (Mediterraneibacter gnavus, UniProt A7B558).
T1 construct: the full length RgNanA and full length RUMGNA_02695 were amplified from R. gnavus ATCC 29149 gDNA; His6 (pHISTEV vector) (N); made in house; host or cells: E. coli BL21
The test can be described thus: RUMGNA_02695 enzymatic activity assay. It is filed as biochemical, R. gnavus ATCC 29149. The procedure:
To assay RUMGNA_02695 activity against 2,7-anhydro-Neu5Ac, the purified recombinant protein was incubated in 100 μl reactions at 37° C. overnight with 1 mM 2,7-anhydro-Neu5Ac, 50 mM sodium phosphate buffer pH 7.0 and 500 μM NADH, NAD, FAD or no cofactor. The reactions were dried using a Concentrator Plus (Eppendorf) for 1 h. Samples were then resuspended in 50 μl of water and 50 μl of reaction buffer (1.74 mg of 1,2-Diamino-4,5-methylenedioxybenzene dihydrochloride (Carbosynth, UK), 324.6 μl MilliQ water, 88.6 μl glacial acetic acid, 58.2 μl of β-Mercaptoethanol and 79.3 μl of sodium hydrosulphite) and incubated for 2 h at 55° C. in the dark. The samples were then centrifuged for 1 min and filtered using a 0.45 μm filter into a glass HPLC vial and directly analysed by HPLC.
DMB-labelled samples were analysed by injecting 10 μl onto a Luna 5 μm C-18(2) LC column 250×4.6 mm (Phenomenex) at 1 ml/min. Mobile phases methanol/acetonitrile/water were used for separation of fluorescently labelled sialic acids. The settings of the fluorescence detector were 373 nm excitation and 448 nm emission. Samples were run alongside a Neu5Ac standard.
To determine the kinetic parameters of RUMGNA_02695 enzymatic reaction, a coupled reaction with lactate dehydrogenase and sialic acid aldolase was carried out as described above but with 15 μg of RgNanA and 10 μg RUMGNA_02695 in each reaction. For the kinetics assays, 1, 0.4, 0.2, 0.1, 0.04, 0.02 and 0.01 mM 2,7-anhydro-Neu5Ac was used and the initial rate of reaction determined for each concentration in triplicate before analysis was performed by fitting the data to a Michaelis-Menten using Graph Pad Prism (V 5.03).
Electrospray ionisation spray mass spectrometry (ESI-MS) analysis was performed using the Applied Biosystems 4000 Q-TRAP. The full 100 μl reaction was diluted with 500 ul of 50% Acetonitrile and 0.1% formic acid and samples analysed in negative ion mode using direct injection.

Setting [3] is: coupled reaction with excess aldolase and lactate dehydrogenase.

T1 sequence (A7B558 whole entry): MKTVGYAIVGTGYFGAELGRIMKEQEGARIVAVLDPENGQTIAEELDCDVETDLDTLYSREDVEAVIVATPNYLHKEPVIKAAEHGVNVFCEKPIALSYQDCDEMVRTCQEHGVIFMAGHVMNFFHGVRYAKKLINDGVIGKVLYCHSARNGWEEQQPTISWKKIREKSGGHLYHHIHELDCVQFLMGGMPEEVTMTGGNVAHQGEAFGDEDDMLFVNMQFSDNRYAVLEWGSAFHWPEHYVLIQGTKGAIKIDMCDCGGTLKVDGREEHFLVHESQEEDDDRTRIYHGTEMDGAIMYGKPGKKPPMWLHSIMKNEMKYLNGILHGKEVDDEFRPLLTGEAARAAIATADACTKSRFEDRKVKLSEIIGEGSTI

As for `CC(=O)N[C@H]1C2OC(C(=O)O)(C[C@@H]1O)O[C@@H]2[C@H](O)CO` (stereo partly shown) [2,7-anhydro-Neu5Ac], the “growth on substrate as sole carbon source” value in test [1] is “no growth was detected”. Also, the “reaction product by HPLC after DMB labelling” value in test [2] (1 mM substrate, in the presence of NAD+ or NADH, not with FAD or without cofactor) was “Neu5Ac was observed as a reaction product”. In test [2] (setting [3]), the Km came out at 74 ± 14 µM and the kcat turned out to be 0.0824 ± 0.0043 s⁻¹.
